From patent publication US20110034472A1, “Novel Compounds for Treatment of Cancer and Disorders Associated With Angiogenesis Function” (UNIVERSITY OF SOUTHERN CALIFORNIA, priority 2004, published 2011)
Read-outs that look alike come from different tables or passages of the source.

Experiments:
[1] = test system: CEM or HEY cells; experiment: Cytotoxicity of salicylhydrazides (Table 5); format: cell-based; conditions: Homo sapiens
Text: Human prostate cancer cells (PC3, p53 null, AR−; DU145, p53 mutant, AR−; and LNCaP, p53 wild-type, AR+) and breast cancer cells (MCF-7, overexpressed wild-type p53, ER+; MDA-MB-468, p53 mutant, […]; and MDA-MB-435, p53 mutant, ER−) were obtained from American Type Cell Culture (Manassas, Va.). The human ovarian carcinoma cell line (HEY) naturally resistant to cisplatin (CDDP) was kindly provided by Dr. Dubeau (University of Southern California Norris Cancer Center; Buick et al. (1985) Cancer Res. 45:3668-76 and Hamaguchi et al. (1993) Cancer Res. 53:5225-32). The results with CEM cells were previously described (Neamati et al. (1998) J. Med. Chem. 41:3202-9). Cells were maintained as monolayer cultures in RPMI 1640 supplemented with 10% fetal bovine serum (Gemini-Bioproducts, Woodland, Calif.) and 2 mmol/L L-glutamine at 37° C. in a humidified atmosphere of 5% CO2. To remove the adherent cells from the flask for passaging and counting, cells were washed with PBS without calcium or magnesium, incubated with a small volume of 0.25% trypsin-EDTA solution (Sigma-Aldrich, St. Louis, Mo.) for 5 to 10 minutes, and washed with culture medium and centrifuged. All experiments were done using cells in exponential cell growth.
(§1) Cytotoxicity was assessed by a 3-(4,5-dimethylthiazol-2-yl)-2,5-diphenyltetrazolium bromide assay as previously described (Carmichael et al. (1987) Cancer Res. 47:936-42). Briefly, cells were seeded in 96-well microtiter plates (PC3 and DU145 at 5,000 cells/well and LNCaP at 10,000 cells/well; breast and ovarian cells at 4,000 cells/well) and allowed to attach. Cells were subsequently treated with a continuous exposure to the corresponding drug for 72 hours. A 3-(4,5-dimethylthiazol-2-yl)-2,5-diphenyltetrazolium bromide solution (at a final concentration of 0.5 mg/mL) was added to each well and cells were incubated for 4 hours at 37° C. After removal of the medium, DMSO was added and the absorbance was read at 570 nm. All assays were done in triplicate. The IC50 was then determined for each drug from a plot of log(drug concentration) versus percentage of cell kill.

[2] = test system: MDA-MB-468 breast cancer cells; experiment: MTT cytotoxicity assay, MDA-MB-468; format: cell-based; conditions: Homo sapiens; for IC50: 72 hours continuous exposure, read-out: IC50 values (mean ± SD)
Protocol: (§2) The sensitivity of a panel of seven human cancer cell lines to SC144 was assessed by MTT-assay. […] The sensitivity towards SC144 was time- and dose-dependent.
as §1

[3] = test system: HEY ovarian cancer cells; experiment: MTT cytotoxicity assay, HEY; format: cell-based, human; conditions: Homo sapiens, HEY; for IC50: 72 hours continuous exposure, read-out: IC50 values (mean ± SD)
Protocol: as §2, §1

[4] = test system: MDA-MB-435 breast cancer cells; experiment: MTT cytotoxicity assay, MDA-MB-435; format: cell-based, human; conditions: Homo sapiens
Protocol: as §2, §1
(§3) Cytotoxicity was assessed by a 3-(4,5-dimethylthiazol-2-yl)-2,5-diphenyltetrazolium bromide (MTT) assay as previously described.^9 Briefly, cells were seeded in 96-well microtiter plates and allowed to attach. Cells were subsequently treated with continuous exposure to the corresponding drug for 72 h. An MTT solution (at a final concentration of 0.5 mg/mL) was added to each well, and cells were incubated for 4 h at 37° C. After removal of the medium, DMSO was added and the absorbance was read at 570 nm. All assays were done in triplicate. The IC50 was then determined for each drug from a plot of log (drug concentration) versus percentage of cells killed.

[5] = test system: DU145 prostate cancer cells; experiment: MTT cytotoxicity assay, DU145; format: cell-based; conditions: Homo sapiens; for IC50: DU-145, 72 hours continuous exposure, read-out: IC50 values (mean ± SD)
Protocol: as §2, §1

[6] = test system: MCF-7 breast cancer cells; experiment: MTT cytotoxicity assay, MCF-7; format: cell-based, human; conditions: for IC50: MCF7, 72 hours continuous exposure, read-out: IC50 values (mean ± SD); for CC50: MTT-assay, read-out: CC50 values (mean ± SD)
Protocol: as §2, §1

[7] = test system: PC3 prostate cancer cells; experiment: MTT cytotoxicity assay, PC3; format: cell-based; conditions: Homo sapiens
Protocol: as §2, §1

[8] = test system: LNCaP prostate cancer cells; experiment: MTT cytotoxicity assay, LNCaP; format: cell-based; conditions: Homo sapiens
Protocol: as §1, §3

[9] = test system: MDA-MB-435 cells; experiment: MTT assay, continuous drug exposure for 48 hours (Table 3); format: cell-based, human; conditions: for IC80: MDA-MB-435, read-out: CC80
[10] = 72 hours continuous exposure, read-out: IC50 values (mean ± SD)
[11] = PC-3, PC3 cells, read-out: IC50 value
[12] = PC3, 72 hours continuous exposure, read-out: IC50 values (mean ± SD)
[13] = MTT-assay, read-out: CC50 values (mean ± SD)

Structure (SMILES) | IC50 [1] | IC50 [2] | IC50 [3] | IC50 [4, 10] | IC50 [5] | IC50 ([6]; Homo sapiens, MCF-7) | IC50 [7, 11] | IC50 [7, 12] | IC50 [8, 10] | IC80 ([9]; Homo sapiens) | also measured
O=C(NNC(=O)c1ccccc1O)C1=CC2C=CC=CC2C=C1O (stereo not shown) [SC21] | 400 ± 60 nM | 200 ± 2 nM | 400 ± 60 nM | 35 ± 7 nM | 120 ± 50 nM | 40 ± 7 nM | 3200 ± 200 nM | 3250 nM | 200 ± 70 nM | – | –
O=C(NNC(O)c1cc2ccccc2cc1O)c1cc2ccccc2cc1O (stereo not shown) [SC23] | 2300 ± 200 nM | 50 ± 14 nM | 2350 nM | 240 ± 28 nM | 50 ± 19 nM | 280 ± 35 nM | 2000 ± 500 nM | 2000 nM | 850 ± 200 nM | 100 ± 10 nM | CC50 [9]: 40 ± 7 nM
O=C(NNc1nc2cc(F)ccc2n2cccc12)c1cnccn1 [SC144, Pyrazine-2-carboxylic acid N′-(7-fluoro-pyrrolo[1,2-a]quinoxalin-4-yl)-hydrazide] | – | – | – | – | – | – | – | – | – | 10000 ± 10 nM | CC50 [2, 13]: 700 ± 100 nM; CC50 [3, 13]: 1000 ± 60 nM; IC50 ([4]; MTT, 72 h, read-out: IC50): 4000 ± 100 nM; CC50 [4, 13]: 4000 ± 1400 nM; CC50 ([5]; DU-145, MTT-assay, read-out: CC50 values (mean ± SD)): 3000 ± 300 nM; CC50 ([6]; Homo sapiens, MCF7, MCF-7): 1700 ± 300 nM; CC50 ([6]; MCF-7): 2000 ± 300 nM; CC50 ([7]; PC3, MTT-assay, read-out: CC50 values (mean ± SD)): 10000 ± 200 nM; IC50 ([8]; hLNCaP, MTT, 72 h, read-out: IC50): 400 ± 60 nM; CC50 ([9]; Homo sapiens, MDA-MB-435): 4000 ± 1400 nM
